Source: the supplement of paper PMC11451515

Assays:
Assay in all cases: AUC of viability dose-response curve (% viability x log10 dose units); higher = less sensitive
Settings in all cases: 48 h
[1] = system: SEM cells
Procedure, shortened: (§1)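 Leukemia cells adapted to each medium (500 or 1000 cells/well, 1536-well plates) were exposed to library compounds in DMSO for 48 h at 37°C at 11 threefold doses, 47 μM to 0.79 nM. Luminescence by CellTiter-Glo One was normalised per plate to DMSO and cell-free wells, then fitted with a four-parameter log-logistic curve on log10 dose. Curves above full viability were scaled and quality-control failures removed before area under the curve was integrated by trapezoidal rule.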

[2] = system: P12-Ichikawa
Procedure, shortened: as §1

[3] = system: NOMO1
Procedure, shortened: as §1

[4] = RPMI 5 mM glucose + 10% dialyzed FBS

With `CC(C)OC1=CC=C2C(=C1)O\C=C(/C2=O)C3=CC=CC=C3` the “AUC of viability dose-response curve” value ([1]; HPLM + 10% dialyzed FBS) was 461, the “AUC of viability dose-response curve” value ([1]; RPMI 5 mM glucose + 10% FBS) was 460 and the “AUC of viability dose-response curve” value [1, 4] was 442. For the same compound, the “AUC of viability dose-response curve” value ([2]; HPLM + 10% dialyzed FBS) was 467, the “AUC of viability dose-response curve” value ([2]; RPMI 5 mM glucose + 10% FBS) was 465 and the “AUC of viability dose-response curve” value [2, 4] was 465. The “AUC of viability dose-response curve” value ([3]; HPLM + 10% dialyzed FBS) was 447, the “AUC of viability dose-response curve” value ([3]; RPMI 5 mM glucose + 10% FBS) was 435 and the “AUC of viability dose-response curve” value [3, 4] was 471.
In the case of `OCc1ccc(-c2ccc(-c3ccc(CO)s3)o2)s1`, the “AUC of viability dose-response curve” value ([1]; HPLM + 10% dialyzed FBS) is reported as 450, the “AUC of viability dose-response curve” value ([1]; RPMI 5 mM glucose + 10% FBS) is reported as 386 and the “AUC of viability dose-response curve” value [1, 4] is reported as 453. The “AUC of viability dose-response curve” value ([2]; HPLM + 10% dialyzed FBS) was 429, the “AUC of viability dose-response curve” value ([2]; RPMI 5 mM glucose + 10% FBS) was 429 and the “AUC of viability dose-response curve” value [2, 4] was 415. For the same compound, the “AUC of viability dose-response curve” value ([3]; HPLM + 10% dialyzed FBS) was 437, the “AUC of viability dose-response curve” value ([3]; RPMI 5 mM glucose + 10% FBS) was 432 and the “AUC of viability dose-response curve” value [3, 4] was 428.
In the case of `CC(C)[C@H](N)C(=O)OCCOC[N]1C=NC2=C1\N=C(N)/NC2=O`, the “AUC of viability dose-response curve” value ([1]; HPLM + 10% dialyzed FBS) is reported as 467, the “AUC of viability dose-response curve” value ([1]; RPMI 5 mM glucose + 10% FBS) is reported as 457 and the “AUC of viability dose-response curve” value [1, 4] is reported as 465. For the same compound, the “AUC of viability dose-response curve” value ([2]; HPLM + 10% dialyzed FBS) was 475, the “AUC of viability dose-response curve” value ([2]; RPMI 5 mM glucose + 10% FBS) was 450 and the “AUC of viability dose-response curve” value [2, 4] was 458. The “AUC of viability dose-response curve” value ([3]; HPLM + 10% dialyzed FBS) was 457, the “AUC of viability dose-response curve” value ([3]; RPMI 5 mM glucose + 10% FBS) was 459 and the “AUC of viability dose-response curve” value [3, 4] was 474.
In the case of `N[S+](=O)([O-])OC[C@@H]1C[C@@H](n2ccc3c(N[C@H]4CCc5ccccc54)ncnc32)C[C@@H]1O`, the “AUC of viability dose-response curve” value ([1]; HPLM + 10% dialyzed FBS) is reported as 352, the “AUC of viability dose-response curve” value ([1]; RPMI 5 mM glucose + 10% FBS) is reported as 346 and the “AUC of viability dose-response curve” value [1, 4] is reported as 339. The “AUC of viability dose-response curve” value ([2]; HPLM + 10% dialyzed FBS) was 373, the “AUC of viability dose-response curve” value ([2]; RPMI 5 mM glucose + 10% FBS) was 352 and the “AUC of viability dose-response curve” value [2, 4] was 352. For the same compound, the “AUC of viability dose-response curve” value ([3]; HPLM + 10% dialyzed FBS) was 319, the “AUC of viability dose-response curve” value ([3]; RPMI 5 mM glucose + 10% FBS) was 300 and the “AUC of viability dose-response curve” value [3, 4] was 313.
`CC/1=C(/N2[C@H](SC1)[C@H](NC(=O)C(N)C3=CC=CC=C3)C2=O)C(O)=O` (some centres undefined) was tested, and the “AUC of viability dose-response curve” value ([1]; HPLM + 10% dialyzed FBS) was 437, the “AUC of viability dose-response curve” value ([1]; RPMI 5 mM glucose + 10% FBS) was 464 and the “AUC of viability dose-response curve” value [1, 4] was 467. The “AUC of viability dose-response curve” value ([2]; HPLM + 10% dialyzed FBS) was 461, the “AUC of viability dose-response curve” value ([2]; RPMI 5 mM glucose + 10% FBS) was 472 and the “AUC of viability dose-response curve” value [2, 4] was 473. The “AUC of viability dose-response curve” value ([3]; HPLM + 10% dialyzed FBS) was 457, the “AUC of viability dose-response curve” value ([3]; RPMI 5 mM glucose + 10% FBS) was 459 and the “AUC of viability dose-response curve” value [3, 4] was 464.
`CC(C)(C)[C@H](NC(=O)c1ccc(N)c(Cl)c1)C(=O)N1CCC[C@H]1C(=O)N[C@H](C#N)CC(=O)O` was tested, and the “AUC of viability dose-response curve” value ([1]; HPLM + 10% dialyzed FBS) was 429, the “AUC of viability dose-response curve” value ([1]; RPMI 5 mM glucose + 10% FBS) was 470 and the “AUC of viability dose-response curve” value [1, 4] was 451. The “AUC of viability dose-response curve” value ([2]; HPLM + 10% dialyzed FBS) was 377, the “AUC of viability dose-response curve” value ([2]; RPMI 5 mM glucose + 10% FBS) was 387 and the “AUC of viability dose-response curve” value [2, 4] was 419. The “AUC of viability dose-response curve” value ([3]; HPLM + 10% dialyzed FBS) was 359, the “AUC of viability dose-response curve” value ([3]; RPMI 5 mM glucose + 10% FBS) was 343 and the “AUC of viability dose-response curve” value [3, 4] was 354.
`CCOC(=O)/C=C/[C@H](C[C@@H]1CCNC1=O)NC(=O)[C@@H](CC(=O)[C@@H](NC(=O)c1cc(C)on1)C(C)C)Cc1ccc(F)cc1` was tested, and the “AUC of viability dose-response curve” value ([1]; HPLM + 10% dialyzed FBS) was 452, the “AUC of viability dose-response curve” value ([1]; RPMI 5 mM glucose + 10% FBS) was 463 and the “AUC of viability dose-response curve” value [1, 4] was 454. The “AUC of viability dose-response curve” value ([2]; HPLM + 10% dialyzed FBS) was 466, the “AUC of viability dose-response curve” value ([2]; RPMI 5 mM glucose + 10% FBS) was 459 and the “AUC of viability dose-response curve” value [2, 4] was 450. For the same compound, the “AUC of viability dose-response curve” value ([3]; HPLM + 10% dialyzed FBS) was 471, the “AUC of viability dose-response curve” value ([3]; RPMI 5 mM glucose + 10% FBS) was 469 and the “AUC of viability dose-response curve” value [3, 4] was 440.
With `NC(=O)OCC(COC(N)=O)c1ccccc1` the “AUC of viability dose-response curve” value ([1]; HPLM + 10% dialyzed FBS) was 455, the “AUC of viability dose-response curve” value ([1]; RPMI 5 mM glucose + 10% FBS) was 448 and the “AUC of viability dose-response curve” value [1, 4] was 471. For the same compound, the “AUC of viability dose-response curve” value ([2]; HPLM + 10% dialyzed FBS) was 465, the “AUC of viability dose-response curve” value ([2]; RPMI 5 mM glucose + 10% FBS) was 460 and the “AUC of viability dose-response curve” value [2, 4] was 465. For the same compound, the “AUC of viability dose-response curve” value ([3]; HPLM + 10% dialyzed FBS) was 434, the “AUC of viability dose-response curve” value ([3]; RPMI 5 mM glucose + 10% FBS) was 465 and the “AUC of viability dose-response curve” value [3, 4] was 456.
For `COc1cc(O)c2c(c1)C(=O)c1cc(C)cc(O)c1C2=O`, the “AUC of viability dose-response curve” value ([1]; HPLM + 10% dialyzed FBS) was 427, the “AUC of viability dose-response curve” value ([1]; RPMI 5 mM glucose + 10% FBS) was 399 and the “AUC of viability dose-response curve” value [1, 4] was 414. The “AUC of viability dose-response curve” value ([2]; HPLM + 10% dialyzed FBS) was 451, the “AUC of viability dose-response curve” value ([2]; RPMI 5 mM glucose + 10% FBS) was 454 and the “AUC of viability dose-response curve” value [2, 4] was 446. For the same compound, the “AUC of viability dose-response curve” value ([3]; HPLM + 10% dialyzed FBS) was 416, the “AUC of viability dose-response curve” value ([3]; RPMI 5 mM glucose + 10% FBS) was 451 and the “AUC of viability dose-response curve” value [3, 4] was 446.
In the case of `CC(O)C1C2C(C)\C(=C(/N2C1=O)C(O)=O)SC3CNC(C3)C(=O)N(C)C` (centres undefined), the “AUC of viability dose-response curve” value ([1]; HPLM + 10% dialyzed FBS) is reported as 395, the “AUC of viability dose-response curve” value ([1]; RPMI 5 mM glucose + 10% FBS) is reported as 407 and the “AUC of viability dose-response curve” value [1, 4] is reported as 438. For the same compound, the “AUC of viability dose-response curve” value ([2]; HPLM + 10% dialyzed FBS) was 432, the “AUC of viability dose-response curve” value ([2]; RPMI 5 mM glucose + 10% FBS) was 392 and the “AUC of viability dose-response curve” value [2, 4] was 416. For the same compound, the “AUC of viability dose-response curve” value ([3]; HPLM + 10% dialyzed FBS) was 416, the “AUC of viability dose-response curve” value ([3]; RPMI 5 mM glucose + 10% FBS) was 404 and the “AUC of viability dose-response curve” value [3, 4] was 396.
In the case of `Cn1cc(C[C@@H](N)C(=O)O)c2ccccc21`, the “AUC of viability dose-response curve” value ([1]; HPLM + 10% dialyzed FBS) is reported as 461, the “AUC of viability dose-response curve” value ([1]; RPMI 5 mM glucose + 10% FBS) is reported as 406 and the “AUC of viability dose-response curve” value [1, 4] is reported as 467. The “AUC of viability dose-response curve” value ([2]; HPLM + 10% dialyzed FBS) was 467, the “AUC of viability dose-response curve” value ([2]; RPMI 5 mM glucose + 10% FBS) was 472 and the “AUC of viability dose-response curve” value [2, 4] was 469. The “AUC of viability dose-response curve” value ([3]; HPLM + 10% dialyzed FBS) was 449, the “AUC of viability dose-response curve” value ([3]; RPMI 5 mM glucose + 10% FBS) was 448 and the “AUC of viability dose-response curve” value [3, 4] was 440.
